≈ marks a conversion by molar mass, not a printed value.
Key:
[1] = Solubility in 0.1 M phosphate buffer pH 7.4; type: physicochemical; conditions: pH 7.4, 24 h
Protocol: Solubility values are determined by agitation of compounds in 0.1 M phosphate buffer at pH 7.4 for 24 h at 25° C. The supernatant is separated from undissolved material by double centrifugation and subsequently analyzed and quantified against a standard of known concentration in DMSO using generic HPLC-UV methodology coupled with mass spectral peak identification (J. Med. Chem., 2006, 49(23), 6672-6682).

[2] = Protein binding by equilibrium dialysis; type: in vitro ADME; conditions: rat, equilibrium dialysis against 10% plasma, 37° C., read-out: Protein binding, % free
Protocol: Protein binding is determined by equilibrium dialysis. A 20 iM concentration of compound is dialyzed against 10% plasma at a temperature of 37° C. for 18 h. The resulting samples are analyzed using generic HPLC-UV methodology coupled with mass spectral peak identification. The reported K1 value is the first apparent association constant [proteináligand]/([protein][ligand]), all concentrations being measured in moles/liter (J. Med. Chem., 2006, 49(23), 6672-6682).
Protein binding can be measured in a high-throughput screen by equilibrium dialysis combined with liquid chromatography and mass spectrometry (Wan, H. and Rehngren, M., J. Chromatogr. A 2006, 1102, 125-134).

human IGF1R = biological target: T1, human IGF1R (Homo sapiens, UniProt P08069); test: Inhibition of Insulin-Like Growth Factor-1 Receptor Phosphorylation in R+ cells; type: cell-based; conditions: median; R+ cells stimulated with 30 nM IGF1
T1 construct: expressed in transfected cells; host or cells: R+ cells (R- mouse fibroblasts transfected with human IGF1R)
T1 sequence (P08069 31-1367): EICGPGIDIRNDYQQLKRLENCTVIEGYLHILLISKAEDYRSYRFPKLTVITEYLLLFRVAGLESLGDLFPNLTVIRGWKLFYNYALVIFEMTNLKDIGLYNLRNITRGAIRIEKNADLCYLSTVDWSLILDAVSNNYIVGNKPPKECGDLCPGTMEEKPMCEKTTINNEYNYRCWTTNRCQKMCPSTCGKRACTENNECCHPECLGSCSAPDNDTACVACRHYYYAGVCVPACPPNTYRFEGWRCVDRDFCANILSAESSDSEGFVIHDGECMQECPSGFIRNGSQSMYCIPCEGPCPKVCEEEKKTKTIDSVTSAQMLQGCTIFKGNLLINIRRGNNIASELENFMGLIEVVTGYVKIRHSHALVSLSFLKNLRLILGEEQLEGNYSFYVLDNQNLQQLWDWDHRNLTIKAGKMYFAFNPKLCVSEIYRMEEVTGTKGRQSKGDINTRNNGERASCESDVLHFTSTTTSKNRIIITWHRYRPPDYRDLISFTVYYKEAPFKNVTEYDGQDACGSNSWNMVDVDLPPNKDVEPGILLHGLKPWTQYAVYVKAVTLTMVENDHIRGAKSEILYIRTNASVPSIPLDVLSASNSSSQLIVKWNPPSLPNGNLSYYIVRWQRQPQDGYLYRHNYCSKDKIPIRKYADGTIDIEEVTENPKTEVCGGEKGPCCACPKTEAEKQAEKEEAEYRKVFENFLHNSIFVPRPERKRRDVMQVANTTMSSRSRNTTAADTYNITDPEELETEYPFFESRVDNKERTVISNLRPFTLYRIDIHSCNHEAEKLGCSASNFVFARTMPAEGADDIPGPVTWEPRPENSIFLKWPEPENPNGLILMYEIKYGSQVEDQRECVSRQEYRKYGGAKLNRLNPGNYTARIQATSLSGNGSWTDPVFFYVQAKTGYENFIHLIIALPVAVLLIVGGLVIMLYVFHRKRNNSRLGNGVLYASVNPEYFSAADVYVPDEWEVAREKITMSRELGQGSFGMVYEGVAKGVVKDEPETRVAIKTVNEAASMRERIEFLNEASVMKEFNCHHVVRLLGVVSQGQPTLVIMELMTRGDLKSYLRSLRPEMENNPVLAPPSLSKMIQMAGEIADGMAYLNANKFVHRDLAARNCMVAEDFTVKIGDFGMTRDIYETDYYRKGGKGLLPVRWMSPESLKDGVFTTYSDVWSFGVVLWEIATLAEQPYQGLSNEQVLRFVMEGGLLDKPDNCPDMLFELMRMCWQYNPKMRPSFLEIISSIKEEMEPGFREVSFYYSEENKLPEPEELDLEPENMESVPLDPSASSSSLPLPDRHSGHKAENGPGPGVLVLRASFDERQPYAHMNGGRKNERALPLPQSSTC
Protocol: This immunofluorescence end point cell assay measures the ability of a test compound to reduce the measured levels of IGF1R phosphorylation after IGF1 stimulation in R cells. R^+ cells are derived by transfection of R^− mouse fibroblast cells with human IGF1R. R^+ cells are routinely cultured in DMEM growth medium (Gibco BRL, 41966) containing 2 mM L-Glutamine (Invitrogen Code no. 25030-024) and 10% (v/v) foetal bovine serum (FBS)) in a 5% CO2 air incubator at 37° C.
To undertake the assay, the R^+ cells are seeded at 5×10^3 cells/well in DMEM plus 1% foetal calf serum, 1% L-glutamine in 96-well black Packard View plates (PerkinElmer 6005182) and incubated at 37° C. (+5% CO2) in a humidified incubator. […]
Following the compound treatment, the R^+ cells are stimulated with a final concentration of 30 nM IGF1 (Gropep IM001) for 20 minutes at 37° C. […] Additionally, in-house antibodies raised against phospho IGF1R were also used at a suitable titre determined for each batch. […]
The Green Fluorescent phospho IGF1R-associated signal in each well was measured using an Acumen Explorer HTS Reader (TTP Labtech Ltd., Cambridge). Phospho IGF1R-associated fluorescence emission can be detected at 530 nm following excitation at 488 nm. […] These fluorescent objects can be quantified and provide a measure of the phospho IGF1R levels in cells. […]

[3] = biological target: T2, human cytochrome P450 (CYP) 2D6 (Homo sapiens, UniProt P10635); test: Cytochrome P450 Inhibition Assay 2D6; type: in vitro ADME; conditions: test compound final concentrations 0.1-10 μM; substrate MAMC
T2 construct: made in house; host or cells: yeast cell lines (microsomal fractions)
T2 sequence (P10635 whole entry): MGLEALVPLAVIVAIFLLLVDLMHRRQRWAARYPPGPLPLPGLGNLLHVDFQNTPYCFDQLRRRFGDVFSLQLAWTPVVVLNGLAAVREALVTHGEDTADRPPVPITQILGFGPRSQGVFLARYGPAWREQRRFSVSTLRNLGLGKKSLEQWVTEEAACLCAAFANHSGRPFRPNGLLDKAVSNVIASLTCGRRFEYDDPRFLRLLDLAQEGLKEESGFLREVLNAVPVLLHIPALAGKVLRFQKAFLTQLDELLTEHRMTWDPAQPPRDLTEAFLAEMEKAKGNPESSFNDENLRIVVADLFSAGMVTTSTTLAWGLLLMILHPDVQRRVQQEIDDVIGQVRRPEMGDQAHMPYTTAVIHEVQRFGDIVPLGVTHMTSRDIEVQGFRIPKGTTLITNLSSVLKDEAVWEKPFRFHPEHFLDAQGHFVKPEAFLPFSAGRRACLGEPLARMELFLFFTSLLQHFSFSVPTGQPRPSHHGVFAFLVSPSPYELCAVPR
Protocol: The inhibitory potential (IC50) of test compounds against 5 human cytochrome P450 (CYP) isoforms (1A2, 2C9, 2C19, 3A4 and 2D6) was assessed using an automated fluorescent end point in vitro assay modified from Crespi (Crespi and Stresser, 2000). Microsomal subcellular fractions prepared from Yeast cell lines expressing each human CYP isoform were used as an enzyme source in this assay. The activity of the 5 major human CYPs was determined from the biotransformation of a number of coumarin substrates to fluorescent metabolites, in the presence of NADPH. […] Stock solutions of each CYP, with its respective substrate, were prepared in phosphate buffer pH7.4 (see Table 1) and 178 μl was added to the well of a black solid, flat bottom, 300 μl 96 well is microtitre plate (Corning Costar). […] After pre-incubating at 37° C. for 5 min the reactions were started with addition of NADPH (20 μl, concentration shown in Table 1). […] The appropriate solvent controls and substrate blanks were included in each experiment to assess control activity and identify any inherent fluorescence due to the test compounds. […] The plates were read on a fluorimeter (Spectrafluor Plus) at the appropriate excitation and emission wavelengths (listed in Table 2) and the percent activity, corrected for control, was plotted against the test compound concentration.

Row | solubility at 24 h ([1]; phosphate buffer, 25 °C, pH 7.4, aqueous buffer, thermodynamic from solid) [µM] | fraction unbound at 18 h, 20 µM [2] | IC50 (human IGF1R) [nM] | IC50 [3] [nM] | solubility at 24 h ([1]; 25° C.) [µM] | SMILES
1 | 9.24 (≈ 4.01 µg/mL) | 0.0205 | 2.68 | > 10000 | – | CCc1cc(Nc2cc(OC)nc(N3CCC[C@H]3c3cc(-c4ncccn4)no3)n2)n[nH]1 [Comparative Example A, (S)-6-Methoxy-2-{2-[3-(pyrimid-2-yl)isoxazol-5-yl]pyrrolidin-1-yl}-4-(5-ethyl-1H-pyrazol-3-ylamino)pyrimidine]
2 | – | 0.0523 | 4.29 | > 10000 | 160 (≈ 67.1 µg/mL) | COc1cc(Nc2cc(C)n[nH]2)nc(N2CCC[C@H]2c2cc(-c3ncccn3)no2)n1 [Example 1, (S)-6-Methoxy-2-{2-[3-(pyrimid-2-yl)isoxazol-5-yl]pyrrolidin-1-yl}-4-(5-methyl-1H-pyrazol-3-ylamino)pyrimidine]

Source: patent US20080269266A1, “NOVEL COMPOUNDS 747” (ASTRAZENECA AB, priority 2007, published 2008)
